Reference: ChEMBL document CHEMBL3988442, “University of Dundee, Small-Polar-MMV Screening Library” (2021)
Where “and” joins values, the source holds several entries; their conditions need not be identical. Identical values can stand only once.

Columns and labels:
[1] = molecular target: Sialic acid-binding Ig-like lectin 9 (Homo sapiens, UniProt Q9Y336); test: Hs-Siglec9 ALPHAscreen SOP 20170721
Histidine--tRNA ligase = molecular target: T1, Histidine--tRNA ligase (Leishmania infantum, UniProt A4I591); test: Leishmania infantum Histidine tRNA synthetase (LdHisRS); format: functional
T1 sequence (A4I591 whole entry): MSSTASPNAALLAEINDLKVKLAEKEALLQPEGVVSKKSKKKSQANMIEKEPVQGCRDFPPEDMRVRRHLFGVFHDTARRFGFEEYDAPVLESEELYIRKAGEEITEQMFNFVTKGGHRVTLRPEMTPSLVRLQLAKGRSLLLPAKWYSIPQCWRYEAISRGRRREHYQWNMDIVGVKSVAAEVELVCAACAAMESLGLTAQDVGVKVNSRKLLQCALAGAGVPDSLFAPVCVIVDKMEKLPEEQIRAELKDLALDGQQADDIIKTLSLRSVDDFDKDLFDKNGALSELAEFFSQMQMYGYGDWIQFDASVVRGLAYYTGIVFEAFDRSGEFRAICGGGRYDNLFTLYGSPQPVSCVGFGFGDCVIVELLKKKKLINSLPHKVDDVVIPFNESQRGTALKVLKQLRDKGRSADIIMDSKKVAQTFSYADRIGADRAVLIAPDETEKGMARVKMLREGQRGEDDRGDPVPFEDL

[2] = tested on: Mycobacterium tuberculosis; test: Cornell M. t heat shock assay; format: functional, organism-based; settings: for IC50: Mycobacterium tuberculosis
Plasmodium falciparum = test: Calibr Malaria Delayed Death Assay SOP; format: functional, organism-based; settings: for IC50: Plasmodium falciparum
[3] = In vitro enzyme assay to detect hydrolysis of chlorophenol red-beta-D-[…] directly proportional to the number of Toxoplasma stably expressing beta-galactosidase; format: functional, organism-based, Toxoplasma gondii; settings: for IC50: Toxoplasma gondii
Leishmania donovani = test: Leishmania intramacrophage assay; format: functional, organism-based; settings: for IC50: Leishmania donovani
[4] = microbe, parasite or virus in culture; settings: Mycobacterium tuberculosis, 72 h, read-out: pIC50 (converted)
Tryptophan--tRNA ligase = Tryptophan--tRNA ligase (Mycobacterium tuberculosis (strain ATCC 25618 / H37Rv), UniProt P9WFT3); test: Biochemical assay for Mt-TrpRS; format: functional
[5] = microbe, parasite or virus in culture; settings: Mycobacterium tuberculosis, 96 h, read-out: pIC50 (converted)
ClpP1P2 = ClpP1P2 (Mycobacterium tuberculosis (strain ATCC 25618 / H37Rv), UniProt P9WPC3+P9WPC5); test: in vitro assay to detect presence of AMC directly proportional to the activity of ClpP1P2. GHDDI collaboration.; format: functional
[6] = molecular target: T2, Coenzyme A biosynthesis bifunctional protein CoaBC (Mycobacterium tuberculosis (strain ATCC 25618 / H37Rv), UniProt P9WNZ1); test: Biomol Green assay for MtCoaBC inhibitor, OD650 read; format: functional
T2 sequence (P9WNZ1 whole entry): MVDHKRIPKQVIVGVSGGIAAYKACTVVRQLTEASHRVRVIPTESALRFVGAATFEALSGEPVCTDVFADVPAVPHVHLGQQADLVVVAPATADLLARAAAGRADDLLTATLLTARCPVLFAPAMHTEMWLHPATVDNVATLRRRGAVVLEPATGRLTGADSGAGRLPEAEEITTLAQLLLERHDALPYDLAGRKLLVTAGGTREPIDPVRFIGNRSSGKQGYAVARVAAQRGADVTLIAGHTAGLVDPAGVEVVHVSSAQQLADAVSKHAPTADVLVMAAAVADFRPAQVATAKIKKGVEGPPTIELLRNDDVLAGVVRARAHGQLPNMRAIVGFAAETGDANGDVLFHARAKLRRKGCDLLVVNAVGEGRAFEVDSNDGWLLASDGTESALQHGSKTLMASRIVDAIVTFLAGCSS

## N#Cc1ccc2c(c1)CN(C(=O)c1nc[nH]n1)C2c1cnco1 (stereo unspecified)
[1]
  IC50: > 30.2 µM

## O=c1[nH]nc(-c2cccs2)c2sc(N3CCOCC3)nc12
[1]
  IC50: > 30.2 µM

## Cc1nnc(NCc2ccccc2F)c(C#N)c1C
Histidine--tRNA ligase
  IC50: 16.9 µM and 23.1 µM
[2]
  IC50: 78.6 µM

## CC(=O)NCC(=O)N1Cc2cc(C#N)ccc2C1c1cnco1 (stereo unspecified)
[1]
  IC50: > 30.2 µM

## CC(C)N(C)CC(=O)NCc1ccccc1N1CCN(C)CC1
[1]
  IC50: > 30.2 µM

## COC(=O)C(O)C1CCN(Cc2cccc(-n3cccn3)c2)CC1 (stereo unspecified)
[1]
  IC50: > 30.2 µM

## CCc1cc(N2CC(N3CCCCC3C)C2)n2nccc2n1 (stereo unspecified)
[1]
  IC50: > 30.2 µM

## Cc1nc(C2CCNCC2)cc(N(C)Cc2cc3cc(F)ccc3[nH]2)n1
Plasmodium falciparum
  pIC50: 6.017
  IC50: 0.803 µM
[2]
  IC50: 72.3 µM
[3]
  pIC50: 5.24 and 4.835
Leishmania donovani
  pIC50: 4.976
  IC50: 11.9 µM

## CS(=O)(=O)N[C@@H]1CN(C(=O)c2cc3ccccc3s2)C[C@H]1O
[2]
  pIC50: 4.54
  IC50: 24.6 µM
[4]
  IC50: 25.4 µM
Tryptophan--tRNA ligase
  IC50: > 195 µM
[5]
  IC50: > 50.1 µM

## Cc1nn(C)c(C)c1CCC(=O)NCc1csc(N2CCCC2)n1
[1]
  IC50: > 30.2 µM

## O=C(NCc1nc2ccccc2[nH]1)c1cc2n(n1)CCCO2
[1]
  IC50: > 30.2 µM

## COc1ccc(OC)c(C(=O)N2CCC(Nc3cccnc3)CC2)c1
[1]
  IC50: > 30.2 µM

## CC(C)c1ncc2c(n1)CN(Cc1noc(-c3ccccc3)n1)CC2
[2]
  IC50: 36.9 µM
ClpP1P2
  IC50: > 100 µM

## Nc1nccc(N2C[C@@H](CN3CCCCC3)[C@@H](CO)C2)n1
[1]
  IC50: > 30.2 µM

## CCNC(=O)c1cc2n(n1)CCCO2
[1]
  IC50: > 30.2 µM

## CC(=O)NCCCSC1CCN(c2ccccc2F)C1=O (stereo unspecified)
[1]
  IC50: > 30.2 µM

## CCn1ncc2c1C(COC)CN(Cc1cccnc1)C2 (stereo unspecified)
[1]
  IC50: > 30.2 µM

## Cc1occc1C(=O)N1CCO[C@H]2[C@@H](Oc3ccccn3)CC[C@@H]21
[1]
  IC50: > 30.2 µM

## COC(=O)CC1CCN(C(=O)c2ccc(-n3nnnc3C)cc2)CC1
[1]
  IC50: > 30.2 µM

## Cc1cc(CNC(=O)c2cnoc2C)c(C)o1
[1]
  IC50: > 30.2 µM

## Cc1nc(-n2nc(C3CC3)cc2NC(=O)C(C)C)[nH]c(=O)c1C
[2]
  IC50: 7.58 µM
[3]
  pIC50: 5.686
  IC50: 3.09 µM
[4]
  IC50: 10.2 µM
[5]
  IC50: 14.2 µM

## CCn1c(C)cc(C(=O)N2CCC(NC(=O)c3ccc(C)o3)CC2)c1C
[1]
  IC50: > 30.2 µM

## Cc1cc(=O)[nH]c(-n2nc(C3CC3)cc2N)n1
[2]
  IC50: 27.5 µM
[4]
  IC50: 30.1 µM
Leishmania donovani
  pIC50: < 4.3 and 4.677
[5]
  IC50: 41.2 µM

## O=C(CN1CC(c2nc(C3CC3)no2)C1)N1CCOCC1.O=C(O)C(=O)O
[2]
  IC50: > 100 µM
[3]
  pIC50: 5.075
  IC50: 5.21 µM

## CN[C@@H]1CCC[C@@H](Oc2ccccc2Oc2ccc(C)cc2)[C@@H]1O
Plasmodium falciparum
  pIC50: 6.476
  IC50: 0.349 µM
[2]
  pIC50: 4.304
  IC50: 89.2 µM
[4]
  IC50: 35.8 µM
Leishmania donovani
  pIC50: 5.128
  IC50: 5.46 µM
[5]
  IC50: > 50.1 µM

## CN(C)CCN(C)C(=O)Cn1cccc2cc(-c3ccc(F)cc3)nc1-2
Plasmodium falciparum
  pIC50: 6.323
  IC50: 0.489 µM
[2]
  pIC50: 4.438
  IC50: 42.9 µM
ClpP1P2
  IC50: > 100 µM
Leishmania donovani
  pIC50: 4.872
  IC50: 9.3 µM

## Cc1ccc(CN(CCCn2ccnc2)Cc2cccs2)s1
[2]
  IC50: 19.9 µM
[4]
  IC50: 42 µM
Tryptophan--tRNA ligase
  IC50: > 195 µM
[5]
  IC50: 25.9 µM

## Cc1ccccc1CN1CCCC1c1cccc(Nc2nccs2)n1 (stereo unspecified)
[6]
  IC50: > 30.2 µM
[2]
  pIC50: 5.632
  IC50: 1.93 µM
